Our source for the TGI values is PubChem BioAssay (NCI).

SMILES strings stand for the structures.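 Values below derive from 48-hour exposures of cells grown in 96-well plates, with endpoints linearly interpolated between the two concentrations bracketing the appropriate inhibition level. TGI marks complete inhibition of growth.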

Among the test systems are HOP-62 NSCLC; SW-620 colon; 786-0 renal; SN12C renal; HCC-2998 colon; MDA-N; OVCAR-3 ovarian; UACC-257 melanoma; U251 CNS; TK-10 renal; SK-MEL-28 melanoma; COLO 205 colon; SR leukemia; HS 578T breast; A498 renal; RXF 393 renal; MALME-3M melanoma.
Common to all, as to experiment: NCI tumour cell line growth inhibition, 48 h

`CC(=O)NNC(=S)/N=C/c1c(O)cc(C)oc1=O`: the TGI in the experiment with HOP-62 NSCLC, in the experiment on SW-620 colon, with 786-0 renal, with SN12C renal, in the experiment on HCC-2998 colon and in the experiment on MDA-N was over 100 µM throughout. In addition, the TGI with OVCAR-3 ovarian, in the experiment with UACC-257 melanoma, in the experiment with U251 CNS, in the experiment on TK-10 renal, in the experiment with SK-MEL-28 melanoma and in the experiment with COLO 205 colon was over 100 µM throughout.
For the compound `Cc1cc(O)c(/C=N/c2nc(-c3cccc([N+](=O)[O-])c3)cs2)c(=O)o1`, the TGI with HOP-62 NSCLC, in the experiment on SW-620 colon, in the experiment on 786-0 renal, in the experiment with SN12C renal, in the experiment on HCC-2998 colon and with OVCAR-3 ovarian was over 100 µM in each case. Moreover, the TGI in the experiment on UACC-257 melanoma was over 100 µM; in the experiment with U251 CNS, over 100 µM; in the experiment on TK-10 renal, 26.6 µM; in the experiment with SK-MEL-28 melanoma it was over 100 µM; in the experiment on COLO 205 colon, over 100 µM.
Turning to `O[C@H]1[C@H](O)[C@H](O)CN2CCC[C@@H](O)[C@H]12`, the TGI in the experiment on SR leukemia, with HOP-62 NSCLC, with SW-620 colon, in the experiment with HS 578T breast, with 786-0 renal and with SN12C renal was over 100 µM throughout. The TGI in the experiment on HCC-2998 colon, in the experiment on A498 renal, in the experiment with OVCAR-3 ovarian, in the experiment on UACC-257 melanoma, in the experiment with RXF 393 renal and in the experiment with U251 CNS was over 100 µM in each case. Further, the TGI in the experiment on TK-10 renal, in the experiment with SK-MEL-28 melanoma and in the experiment with COLO 205 colon was over 100 µM throughout.
Turning to `CCc1n[nH]c(=O)n1NC(=O)c1ccccc1C(=O)O`, the TGI in the experiment with SR leukemia, in the experiment with HOP-62 NSCLC, in the experiment with SW-620 colon, with 786-0 renal, in the experiment on SN12C renal and in the experiment with HCC-2998 colon was over 100 µM throughout. In addition, the TGI with MDA-N, with OVCAR-3 ovarian, with UACC-257 melanoma, with RXF 393 renal, in the experiment with U251 CNS and in the experiment on TK-10 renal was over 100 µM in each case. The TGI in the experiment on SK-MEL-28 melanoma and in the experiment with COLO 205 colon was over 100 µM throughout.
As to `O=C(CCc1ccccc1CO)NCCc1ccccc1`, the TGI in the experiment on SR leukemia, in the experiment with HOP-62 NSCLC, with SW-620 colon, in the experiment on HS 578T breast, in the experiment with 786-0 renal and in the experiment with SN12C renal was over 100 µM throughout. Besides, the TGI in the experiment on HCC-2998 colon, with A498 renal, in the experiment on OVCAR-3 ovarian, in the experiment with UACC-257 melanoma, with RXF 393 renal and with U251 CNS was over 100 µM throughout. The TGI with TK-10 renal, in the experiment on SK-MEL-28 melanoma and in the experiment with COLO 205 colon was over 100 µM in each case.
In the case of `O=C(O)c1cc(O)c2c(c1)Cc1cccc(O)c1C2=O`, the TGI with SR leukemia was 66.8 µM; in the experiment on HOP-62 NSCLC, 43 µM; in the experiment with SW-620 colon it was over 100 µM; in the experiment on 786-0 renal it was 92.2 µM; in the experiment on SN12C renal, 33.9 µM; in the experiment with HCC-2998 colon, over 100 µM. In addition, the TGI with A498 renal was over 100 µM; in the experiment with MALME-3M melanoma, 38.1 µM; with OVCAR-3 ovarian, 36.9 µM; with UACC-257 melanoma, 67 µM; in the experiment on U251 CNS, 37.3 µM; in the experiment on TK-10 renal, over 100 µM. Also, the TGI is over 100 µM in the experiment on SK-MEL-28 melanoma and 57.4 µM in the experiment with COLO 205 colon.
On to `O=C1CC(c2ccc[nH]2)=NN1c1ccccc1`, for which the TGI in the experiment on HOP-62 NSCLC, with SW-620 colon, in the experiment with 786-0 renal, in the experiment on SN12C renal, in the experiment with MDA-N and with A498 renal was over 100 µM in each case. In addition, the TGI in the experiment with MALME-3M melanoma, with OVCAR-3 ovarian, with UACC-257 melanoma, with RXF 393 renal, in the experiment with U251 CNS and in the experiment on TK-10 renal was over 100 µM in each case. Further, the TGI in the experiment on SK-MEL-28 melanoma and with COLO 205 colon was over 100 µM throughout.
As for `O=c1c(-c2ccccc2Cl)coc2cc(F)ccc12`, the TGI with HOP-62 NSCLC is 62.2 µM; in the experiment with SW-620 colon, over 100 µM; in the experiment on HS 578T breast, over 100 µM; in the experiment on 786-0 renal, over 100 µM; with SN12C renal, over 100 µM; with MDA-N, 25 µM. In addition, the TGI is 47.2 µM in the experiment on A498 renal; over 100 µM in the experiment with OVCAR-3 ovarian; over 100 µM with UACC-257 melanoma; over 100 µM with RXF 393 renal; 35.3 µM with U251 CNS; over 100 µM with TK-10 renal. The TGI with SK-MEL-28 melanoma and in the experiment on COLO 205 colon was over 100 µM throughout.
For the compound `COc1ccc(C2SCC(=O)N2NC(=O)C(C)Oc2ccccc2Cl)cc1` (stereo unspecified), the TGI in the experiment with SR leukemia was 58.1 µM; in the experiment on SW-620 colon it was over 100 µM; with HS 578T breast, over 100 µM; in the experiment with 786-0 renal it was over 100 µM; in the experiment on SN12C renal, over 100 µM; with HCC-2998 colon, over 100 µM. Further, the TGI in the experiment on A498 renal was 92.2 µM; with UACC-257 melanoma it was over 100 µM; in the experiment on RXF 393 renal, over 100 µM; in the experiment on U251 CNS, over 100 µM; with TK-10 renal, over 100 µM; in the experiment on SK-MEL-28 melanoma, over 100 µM. In addition, the TGI in the experiment with COLO 205 colon was 64.4 µM.
For the compound `O=C(NCCCCNCCCNC(=O)c1cc(-c2ccccc2)nc2ccccc12)c1cc(-c2ccccc2)nc2ccccc12`, the TGI was determined as 6.09 µM in the experiment on SR leukemia; 3.02 µM in the experiment with HOP-62 NSCLC; 3.1 µM in the experiment with SW-620 colon; 3.03 µM with 786-0 renal; 3.38 µM in the experiment with SN12C renal; 3.09 µM in the experiment on HCC-2998 colon. For the same compound, the TGI amounted to 3.23 µM in the experiment with MDA-N; 3.23 µM with MALME-3M melanoma; 2.99 µM in the experiment on OVCAR-3 ovarian; 3.36 µM with UACC-257 melanoma; 3.97 µM with RXF 393 renal; 3.32 µM in the experiment with U251 CNS. Besides, the TGI worked out at 2.93 µM in the experiment with TK-10 renal and 3.42 µM with SK-MEL-28 melanoma.
